The source of these data is patent US11414424B2, “Cardiac sarcomere inhibitors” (Cytokinetics, Inc., priority 2018, dated 2022).

This assay concerns bovine cardiac myofibrils. Description: Myofibril assay: PK/LDH-coupled steady-state ATPase activity of skinned bovine cardiac myofibrils. It is filed as biochemical. To be noted: Ca2+ activating to 75% of maximal rate. The essentials: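 Steady-state ATPase of detergent-skinned bovine left-ventricular myofibrils (1 mg/mL), PK/LDH-coupled NADH read at 340 nm, in PIPES/MgCl2 buffer pH 6.8 with 50 μM ATP, 0.6 mM EGTA and CaCl2 set for 50% or 75% activation. Inhibition of activity measured.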
For the compound `COc1cnc(N2CC(=O)N(Cc3ccc(Cl)cc3)C(C3COC3)C2=O)c(F)c1` (stereo not drawn) [Compound 769, 4-(4-chlorobenzyl)-1-(3-fluoro-5-methoxypyridin-2-yl)-3-(oxetan-3-yl)-piperazine-2,5-dione], the “CDMF75 IC15” value turned out to be 7.9 µM.
Then `COc1cnc(N2CC(=O)N(Cc3ccc(Cl)c(F)c3)C(C3COC3)C2=O)c(F)c1` (stereo not drawn) [Compound 772, 4-(4-chloro-3-fluoro-benzyl)-1-(3-fluoro-5-methoxypyridin-2-yl)-3-(oxetan-3-yl)piperazine-2,5-dione], with 7.7 µM.
As for `COc1cnc(N2CC(=O)N(Cc3ccc(F)c(Cl)c3)C(C3COC3)C2=O)c(F)c1` (stereo not drawn) [Compound 775, 4-(3-chloro-4-fluoro-benzyl)-1-(3-fluoro-5-methoxypyridin-2-yl)-3-(oxetan-3-yl)piperazine-2,5-dione], the “CDMF75 IC15” value was 8.0 µM.
`COC(=O)C12CC(C3C(=O)N(c4ncc(Cl)cc4F)CC(=O)N3Cc3ccc(C(F)(F)F)cc3)(C1)C2` (stereo not drawn) [Compound 778, methyl 3-(4-(5-chloro-3-fluoropyridin-2-yl)-3,6-dioxo-1-(4-(trifluoro-methyl)benzyl)piperazin-2-yl)bicydo[1.1.1]pentane-1-carboxylate]: the “CDMF75 IC15” value is 2.4 µM.
The figure for `COC(=O)C12CC(C3C(=O)N(c4ncc(Cl)cc4F)CC(=O)N3Cc3ccc(C(F)F)cc3)(C1)C2` (stereo not drawn) [Compound 779, methyl 3-(4-(5-chloro-3-fluoropyridin-2-yl)-1-(4-(difluoromethyl)benzyl)-3,6-dioxopiperazin-2-yl)bicyclo[1.1.1]pentane-1-carboxylate] is 2.9 µM.
The figure for `COC(=O)C12CC(C3C(=O)N(c4ncc(Cl)cc4F)CC(=O)N3Cc3ccc(F)cc3)(C1)C2` (stereo not drawn) [Compound 780, methyl 3-(4-(5-chloro-3-fluoropyridin-2-yl)-1-(4-fluorobenzyl)-3,6-dioxopiperazin-2-yl)bicyclo[1.1.1]pentane-1-carboxylate] is 3.6 µM; for `COC(=O)C12CC(C3C(=O)N(c4ncc(Cl)cc4F)CC(=O)N3Cc3ccc(C)cc3)(C1)C2` (stereo not drawn) [Compound 781, methyl 3-(4-(5-chloro-3-fluoropyridin-2-yl)-1-(4-methylbenzyl)-3,6-dioxopiperazin-2-yl)bicyclo[1.1.1]pentane-1-carboxylate] it is 4.0 µM; for `CCOC(=O)C12CC(C3C(=O)N(c4ncc(Cl)cc4F)CC(=O)N3Cc3ccc(C(F)(F)F)cc3)(C1)C2` (stereo not drawn) [Compound 782, ethyl 3-(4-(5-chloro-3-fluoropyridin-2-yl)-3,6-dioxo-1-(4-(trifluoro-methyl)benzyl)piperazin-2-yl)bicyclo[1.1.1]pentane-1-carboxylate] it is 3.6 µM.
With `NC(=O)C12CC(C3C(=O)N(c4ncc(Cl)cc4F)CC(=O)N3Cc3ccc(C(F)(F)F)cc3)(C1)C2` (stereo not drawn) [Compound 783, 3-(4-(5-chloro-3-fluoro-pyridin-2-yl)-3,6-dioxo-1-(4-(trifluoromethyl)-benzyl)piperazin-2-yl)bicyclo[1.1.1]pentane-1-carboxamide], the “CDMF75 IC15” value was 3.08 µM.
In the case of `O=C1C(C23CC(CO)(C2)C3)N(Cc2ccc(C(F)(F)F)cc2)C(=O)CN1c1ncc(Cl)cc1F` (stereo not drawn) [Compound 784, 1-(5-chloro-3-fluoropyridin-2-yl)-3-(3-(hydroxymethyl)bicyclo[1.1.1]pentan-1-yl)-4-(4-(trifluoromethyl)benzyl)piperazine-2,5-dione], the “CDMF75 IC15” value turned out to be 6.8 µM.
Regarding `CC(=O)N1CC2(C1)C(=O)N(c1ccc(Cl)cc1F)CC(=O)N2Cc1ccc(F)cc1` [Compound 785, 2-acetyl-8-(4-chloro-2-fluorophenyl)-5-(4-fluorobenzyl)-2,5,8-triazaspiro[3.5]nonane-6,9-dione], the “CDMF75 IC15” value was 5.0 µM.
The figure for `NC(=O)C12CC(C3C(=O)N(c4ncc(Cl)cc4F)CC(=O)N3Cc3ccc(C(F)F)cc3)(C1)C2` (stereo not drawn) [Compound 790, 3-(4-(5-chloro-3-fluoro-pyridin-2-yl)-1-(4-(difluoromethyl)benzyl)-3,6-dioxopiperazin-2-yl)bicyclo[1.1.1]pentane-1-carboxamide] is 4.9 µM; for `NC(=O)C12CC(C3C(=O)N(c4ncc(Cl)cc4F)CC(=O)N3Cc3ccc(F)cc3)(C1)C2` (stereo not drawn) [Compound 791, 3-(4-(5-chloro-3-fluoro-pyridin-2-yl)-1-(4-fluoro-benzyl)-3,6-dioxopiperazin-2-yl)bicyclo[1.1.1]pentane-1-carboxamide] it is 2.7 µM; for `Cc1ccc(CN2C(=O)CN(c3ncc(Cl)cc3F)C(=O)C2C23CC(C(N)=O)(C2)C3)cc1` (stereo not drawn) [Compound 792, 3-(4-(5-chloro-3-fluoro-pyridin-2-yl)-1-(4-methyl-benzyl)-3,6-dioxopiperazin-2-yl)bicyclo[1.1.1]pentane-1-carboxamide] it is 3.8 µM.
Consider `O=C1CN(c2ccc(Cl)cc2F)C(=O)C2(COC2)N1Cc1ccc(F)cc1` [Compound 799, 8-(4-chloro-2-fluoro-phenyl)-5-(4-fluorobenzyl)-2-oxa-5,8-diazaspiro-[3.5]nonane-6,9-dione], for which the “CDMF75 IC15” value amounted to 3.9 µM.
Regarding `O=C1CN(c2ncc(Cl)cc2F)C(=O)C2(CC3(COC3)C2)N1Cc1ccc(C(F)(F)F)cc1` [Compound 813, 10-(5-chloro-3-fluoro-pyridin-2-yl)-7-(4-(trifluoro-methyl)benzyl)-2-oxa-7,10-diazadispiro-[3.1.56.14]dodecane-8,11-dione], the “CDMF75 IC15” value stood at 0.4 µM.
Then `O=C1CN(c2ncc(Cl)cc2F)C(=O)C2(CC3(COC3)C2)N1Cc1ccc(C(F)F)cc1` [Compound 814, 10-(5-chloro-3-fluoro-pyridin-2-yl)-7-(4-(difluoromethyl)benzyl)-2-oxa-7,10-diazadispiro-[3.1.56.14]dodecane-8,11-dione], with 0.8 µM; and `O=C1CN(c2ncc(Cl)cc2F)C(=O)C2(CC3(COC3)C2)N1Cc1ccc(F)cc1` [Compound 815, 10-(5-chloro-3-fluoro-pyridin-2-yl)-7-(4-Fluorobenzyl)-2-oxa-7,10-diazadispiro-[3.1.56.14]dodecane-8,11-dione], with 0.7 µM.
Then `Cc1ccc(CN2C(=O)CN(c3ncc(Cl)cc3F)C(=O)C23CC2(COC2)C3)cc1` [Compound 816, 10-(5-chloro-3-fluoro-pyridin-2-yl)-7-(4-methyl-benzyl)-2-oxa-7,10-diazadispiro[3.1.56.14]-dodecane-8,11-dione], with 0.9 µM; and `NC(=O)C12CC([C@H]3C(=O)N(c4ncc(Cl)cc4F)CC(=O)N3Cc3ccc(C(F)F)cc3)(C1)C2` [Compound 821, (S)-3-(4-(5-chloro-3-fluoropyridin-2-yl)-3,6-dioxo-1-(4-(difluoro-methyl)benzyl)piperazin-2-yl)bicyclo[1.1.1]pentane-1-carboxamide], with 2.1 µM.
Then `NC(=O)C12CC([C@@H]3C(=O)N(c4ncc(Cl)cc4F)CC(=O)N3Cc3ccc(C(F)F)cc3)(C1)C2` [Compound 822, (R)-3-(4-(5-chioro-3-fluoropyridin-2-yl)-3,6-dioxo-1-(4-(difluoro-methyl)benzyl)piperazin-2-yl)bicyclo[1.1.1]pentane-1-carboxamide], with above 39 µM.
